HELM strings list units from the 5' end as sugar, base in round brackets, then linkage (d deoxyribose, r ribose, m 2'-O-methyl, p phosphodiester). Strings are as the collection lists them; they lack the last nucleoside at the 3' end of the tested compound. [moe] = 2'-O-(2-methoxyethyl) (MOE); [sp] = phosphorothioate linkage; [m5C] = 5-methylcytosine
Molecular target: UBE3A-ATS
Assay: mouse, dose not given
Conditions: ASO

| Substance | 3 h FOB score |
| --- | --- |
| RNA1{[moe](G)[sp].[moe](T)p.[moe]([m5C])p.[moe](A)p.d(T)[sp].d([m5C])[sp].d(T)[sp].d([m5C])[sp].d(G)[sp].d(G)[sp].d(G)[sp].d(T)[sp].d(A)[sp].d(T)[sp].[moe](A)p.[moe](T)p.[moe](A)p.[moe](A)[sp].[moe](A)}$$$$ (last 3' nucleoside missing) | 4 score 0-7 |
| RNA1{[moe](G)[sp].[moe](T)p.[moe]([m5C])p.[moe](T)p.[moe](T)p.d([m5C])[sp].d(A)[sp].d(T)[sp].d(T)[sp].d(A)[sp].d(T)[sp].d(T)[sp].d([m5C])[sp].d(T)[sp].d([m5C])[sp].[moe](T)p.[moe](A)p.[moe](G)[sp].[moe](T)}$$$$ (last 3' nucleoside missing) | 4.7 score 0-7 |
| RNA1{[moe](G)[sp].[moe](T)p.[moe]([m5C])p.[moe](T)p.[moe]([m5C])p.d(T)[sp].d(G)[sp].d([m5C])[sp].d(T)[sp].d([m5C])[sp].d(A)[sp].d(G)[sp].d(T)[sp].d(T)[sp].d(A)[sp].[moe](G)p.[moe](G)p.[moe](T)[sp].[moe](T)}$$$$ (last 3' nucleoside missing) | 1 score 0-7 |
| RNA1{[moe](G)[sp].[moe](T)p.[moe]([m5C])p.[moe](T)p.[moe]([m5C])p.d([m5C])[sp].d([m5C])[sp].d(T)[sp].d([m5C])[sp].d(T)[sp].d(T)[sp].d(A)[sp].d(G)[sp].d(T)[sp].d(G)[sp].[moe](A)p.[moe](T)p.[moe](T)[sp].[moe](G)}$$$$ (last 3' nucleoside missing) | 4 score 0-7 |
| RNA1{[moe](G)[sp].[moe]([m5C])[sp].[moe]([m5C])[sp].[moe](T)[sp].[moe](A)[sp].d(A)[sp].d(T)[sp].d(A)[sp].d(T)[sp].d(G)[sp].d(T)[sp].d(G)[sp].d(T)[sp].d([m5C])[sp].d(A)[sp].[moe](T)[sp].[moe]([m5C])[sp].[moe]([m5C])[sp].[moe](T)}$$$$ (last 3' nucleoside missing) | 6.8 score 0-7 |
| RNA1{[moe](G)[sp].[moe]([m5C])[sp].[moe]([m5C])[sp].[moe]([m5C])[sp].[moe](A)[sp].d(T)[sp].d(G)[sp].d(G)[sp].d(A)[sp].d(T)[sp].d(G)[sp].d(G)[sp].d(T)[sp].d(T)[sp].d(G)[sp].[moe](T)[sp].[moe]([m5C])[sp].[moe](A)[sp].[moe](A)}$$$$ (last 3' nucleoside missing) | 7 score 0-7 |
| RNA1{[moe](G)[sp].[moe]([m5C])p.[moe](A)p.[moe](A)p.[moe](A)p.d(T)[sp].d(A)[sp].d([m5C])[sp].d(A)[sp].d(A)[sp].d(T)[sp].d(G)[sp].d(G)[sp].d(T)[sp].d(A)[sp].[moe](A)p.[moe](T)p.[moe]([m5C])[sp].[moe](G)}$$$$ (last 3' nucleoside missing) | 4.2 score 0-7 |
| RNA1{[moe](G)[sp].[moe]([m5C])p.[moe](A)p.[moe](A)p.[moe](T)p.d(G)[sp].d(G)[sp].d(A)[sp].d([m5C])[sp].d(T)[sp].d(T)[sp].d(A)[sp].d(G)[sp].d(T)[sp].d(A)[sp].[moe]([m5C])p.[moe](A)p.[moe]([m5C])[sp].[moe](A)}$$$$ (last 3' nucleoside missing) | 1 score 0-7 |
| RNA1{[moe](G)[sp].[moe]([m5C])p.[moe](A)p.[moe](G)p.[moe]([m5C])p.d(T)[sp].d([m5C])[sp].d(T)[sp].d(T)[sp].d(T)[sp].d(G)[sp].d(T)[sp].d(A)[sp].d(G)[sp].d(G)[sp].[moe]([m5C])p.[moe]([m5C])p.[moe]([m5C])[sp].[moe](A)}$$$$ (last 3' nucleoside missing) | 3.3 score 0-7 |
| RNA1{[moe](G)[sp].[moe]([m5C])p.[moe](A)p.[moe](T)[sp].d(A)[sp].d([m5C])[sp].d([m5C])[sp].d([m5C])[sp].d(A)[sp].d(G)[sp].d(G)[sp].d(G)[sp].[moe](T)p.[moe](A)p.[moe](G)p.[moe](G)[sp].[moe](A)}$$$$ (last 3' nucleoside missing) | 0 score 0-7 |
| RNA1{[moe](G)[sp].[moe]([m5C])p.[moe](A)p.[moe](T)p.[moe](A)[sp].d([m5C])[sp].d([m5C])[sp].d([m5C])[sp].d(A)[sp].d(G)[sp].d(G)[sp].d(G)[sp].d(T)[sp].[moe](A)p.[moe](G)p.[moe](G)[sp].[moe](A)}$$$$ (last 3' nucleoside missing) | 1 score 0-7 |
| RNA1{[moe](G)[sp].[moe]([m5C])p.[moe](A)p.[moe](T)p.[moe](A)p.[moe]([m5C])[sp].d([m5C])[sp].d([m5C])[sp].d(A)[sp].d(G)[sp].d(G)[sp].d(G)[sp].d(T)[sp].d(A)[sp].[moe](G)p.[moe](G)[sp].[moe](A)}$$$$ (last 3' nucleoside missing) | 1 score 0-7 |
| RNA1{[moe](G)[sp].[moe]([m5C])p.[moe](A)p.[moe](T)p.[moe](A)p.[moe]([m5C])p.d([m5C])[sp].d([m5C])[sp].d(A)[sp].d(G)[sp].d(G)[sp].d(G)[sp].d(T)[sp].d(A)[sp].d(G)[sp].d(G)[sp].[moe](A)p.[moe](T)[sp].[moe](T)}$$$$ (last 3' nucleoside missing) | 1 score 0-7 |
| RNA1{[moe](G)[sp].[moe]([m5C])p.[moe](A)p.[moe](T)p.[moe](A)p.d([m5C])[sp].d([m5C])[sp].d([m5C])[sp].d(A)[sp].d(G)[sp].d(G)[sp].d(G)[sp].d(T)[sp].d(A)[sp].d(G)[sp].[moe](G)p.[moe](A)p.[moe](T)[sp].[moe](T)}$$$$ (last 3' nucleoside missing) | 3 score 0-7 |
| RNA1{[moe](G)[sp].[moe]([m5C])p.[moe](A)p.[moe](T)p.[moe](G)p.d(A)[sp].d(T)[sp].d(T)[sp].d([m5C])[sp].d(T)[sp].d(A)[sp].d(A)[sp].d([m5C])[sp].d([m5C])[sp].d(A)[sp].[moe](T)p.[moe](A)p.[moe](G)[sp].[moe](A)}$$$$ (last 3' nucleoside missing) | 1 score 0-7 |
| RNA1{[moe](G)[sp].[moe]([m5C])p.[moe](A)p.[moe](T)p.[moe](G)p.d(T)[sp].d(G)[sp].d(G)[sp].d(G)[sp].d([m5C])[sp].d([m5C])[sp].d(T)[sp].d([m5C])[sp].d(T)[sp].d(A)[sp].[moe](T)p.[moe](T)p.[moe](A)[sp].[moe](A)}$$$$ (last 3' nucleoside missing) | 4 score 0-7 |
| RNA1{[moe](G)[sp].[moe]([m5C])p.[moe](A)p.[moe](T)p.[moe](T)p.d(G)[sp].d(G)[sp].d([m5C])[sp].d(T)[sp].d(T)[sp].d([m5C])[sp].d(A)[sp].d(T)[sp].d(A)[sp].d(T)[sp].[moe](T)p.[moe](T)p.[moe]([m5C])[sp].[moe](T)}$$$$ (last 3' nucleoside missing) | 1 score 0-7 |
| RNA1{[moe](G)[sp].[moe]([m5C])p.[moe](A)p.[moe](T)p.d(A)[sp].d([m5C])[sp].d([m5C])[sp].d([m5C])[sp].d(A)[sp].d(G)[sp].d(G)[sp].d(G)[sp].d(T)[sp].d(A)[sp].[moe](G)p.[moe](G)p.[moe](A)p.[moe](T)[sp].[moe](T)}$$$$ (last 3' nucleoside missing) | 1 score 0-7 |
| RNA1{[moe](G)[sp].[moe]([m5C])p.[moe](A)p.[moe]([m5C])p.[moe](A)p.d(T)[sp].d(A)[sp].d(G)[sp].d(A)[sp].d([m5C])[sp].d([m5C])[sp].d(A)[sp].d(T)[sp].d(A)[sp].d(G)[sp].[moe]([m5C])p.[moe](T)p.[moe](G)[sp].[moe](A)}$$$$ (last 3' nucleoside missing) | 3.3 score 0-7 |
| RNA1{[moe](G)[sp].[moe]([m5C])p.[moe](A)p.[moe]([m5C])p.[moe](A)p.d([m5C])[sp].d([m5C])[sp].d(T)[sp].d(G)[sp].d(G)[sp].d(A)[sp].d(T)[sp].d(T)[sp].d(T)[sp].d([m5C])[sp].[moe](A)p.[moe]([m5C])p.[moe](T)[sp].[moe](A)}$$$$ (last 3' nucleoside missing) | 2 score 0-7 |
| RNA1{[moe](G)[sp].[moe]([m5C])p.[moe](A)p.[moe]([m5C])p.[moe](T)p.d(T)[sp].d(A)[sp].d(A)[sp].d(A)[sp].d(T)[sp].d(T)[sp].d(T)[sp].d(A)[sp].d(T)[sp].d([m5C])[sp].[moe](A)p.[moe](G)p.[moe](T)[sp].[moe](T)}$$$$ (last 3' nucleoside missing) | 3 score 0-7 |
| RNA1{[moe](G)[sp].[moe]([m5C])p.[moe](T)p.[moe](A)p.[moe](T)p.d(A)[sp].d(G)[sp].d(G)[sp].d(T)[sp].d(G)[sp].d(T)[sp].d([m5C])[sp].d(A)[sp].d([m5C])[sp].d(A)[sp].[moe](T)p.[moe](A)p.[moe](T)[sp].[moe](T)}$$$$ (last 3' nucleoside missing) | 2 score 0-7 |
| RNA1{[moe](G)[sp].[moe]([m5C])p.[moe](T)p.[moe](A)p.[moe](T)p.d(A)[sp].d([m5C])[sp].d([m5C])[sp].d([m5C])[sp].d([m5C])[sp].d(T)[sp].d(A)[sp].d(G)[sp].d(G)[sp].d(A)[sp].[moe](T)p.[moe]([m5C])p.[moe](A)[sp].[moe](G)}$$$$ (last 3' nucleoside missing) | 3.8 score 0-7 |
| RNA1{[moe](G)[sp].[moe]([m5C])p.[moe](T)p.[moe](A)p.[moe](T)p.d([m5C])[sp].d(T)[sp].d(G)[sp].d(T)[sp].d(A)[sp].d([m5C])[sp].d(A)[sp].d(A)[sp].d(A)[sp].d(A)[sp].[moe](T)p.[moe](G)p.[moe](G)[sp].[moe](A)}$$$$ (last 3' nucleoside missing) | 0 score 0-7 |
| RNA1{[moe](G)[sp].[moe]([m5C])p.[moe](T)p.[moe](G)[sp].d(A)[sp].d(T)[sp].d([m5C])[sp].d(A)[sp].d([m5C])[sp].d(A)[sp].d(T)[sp].d(T)[sp].[moe](A)p.[moe]([m5C])p.[moe]([m5C])p.[moe]([m5C])[sp].[moe](A)}$$$$ (last 3' nucleoside missing) | 0 score 0-7 |
| RNA1{[moe](G)[sp].[moe]([m5C])p.[moe](T)p.[moe](G)p.[moe](A)[sp].d(T)[sp].d([m5C])[sp].d(A)[sp].d([m5C])[sp].d(A)[sp].d(T)[sp].d(T)[sp].d(A)[sp].[moe]([m5C])p.[moe]([m5C])p.[moe]([m5C])[sp].[moe](A)}$$$$ (last 3' nucleoside missing) | 1 score 0-7 |

Source: the OligoGym collection
